Measurements: US20210317140A1, “Heterocyclic Compounds and Methods of Use” (MEDIVATION TECHNOLOGIES, INC, priority 2013, published 2021)

Experiments:
BTK = biological target: T1, BTK (Homo sapiens, UniProt Q06187); experiment: BTK kinase assay (HotSpot, 33P ATP); type: biochemical; details: for BTK @ 0.1 μM (% Inh): 0.1 μM compound; for BTK @ 0.1 μM (% Inh) / BTK @ 1 μM (% Inh) / BTK @ 0.01 μM (% Inh): 10 μM ATP; for BTK @ 1 μM (% Inh): 1 μM compound; for BTK @ 0.01 μM (% Inh): 0.01 μM compound; for IC50: 10 dose IC50, 10 μM ATP
T1 construct: purchased Reaction Biology Corporation
Protocol: (§1) Compounds of the invention were profiled in a 10 dose IC50 panel against BTK and PI3Kδ, both provided by Reaction Biology Corporation.
BTK assay: In vitro profiling protein kinases was performed using the “HotSpot” assay platform. Briefly, specific kinase/substrate pairs along with required cofactors were prepared in reaction buffer. Compounds were prepared as 10 mM stock solutions in DMSO. Compounds were delivered into the reaction, followed 15-20 minutes later by addition of a mixture of ATP (Sigma, St. Louis Mo.) and ^33P ATP (Perkin Elmer, Waltham Mass.) to a final concentration of 10 μM. […] IC50 values and curve fits were obtained using Prism (GraphPad Software). Buffer Conditions: 20 mM Hepes (pH 7.5), 10 mM MgCl2, 1 mM EGTA, 0.02% Brij35, 0.02 mg/mL BSA, 0.1 mM Na3VO4, 2 mM DTT, 1% DMSO.

PI3Kδ = biological target: T2, PI3Kδ (Homo sapiens, UniProt O00329); experiment: PI3Kδ kinase assay (HTRF, PIP3 detection); type: biochemical; details: for PI3Kδ @ 0.1 μM (% Inh): 0.1 μM compound; for PI3Kδ @ 0.1 μM (% Inh) / PI3Kδ @ 1 μM (% Inh) / PI3Kδ @ 0.01 μM (% Inh): 10 μM ATP; for PI3Kδ @ 1 μM (% Inh): 1 μM compound; for PI3Kδ @ 0.01 μM (% Inh): 0.01 μM compound; for IC50: 10 dose IC50, 10 μM ATP
T2 construct: purchased Reaction Biology Corporation
Source text: as §1
PI3Kδ assay: The PIP3 product is detected by displacement of biotin-PIP3 from an energy transfer complex consisting of Europium labeled anti-GST monoclonal antibody, a GST-tagged pleckstrin homology (PH) domain, biotinylated PIP3 and Streptavidin-Allophycocyanin (APC). […] The PIP3 product formed by PI 3-Kinase(h) activity displaces biotin-PIP3 from the complex resulting in a loss of energy transfer and thus a decrease in signal. This is a 3-step reaction: First, the kinase reaction with PIP2 substrate is carried out in the presence of ATP (10 μM), and the reaction is quenched with stop Solution, and then finally detect by adding Detection Mixture followed by incubation (10 min). Reaction procedure: 1) Prepare substrate in freshly prepared Reaction Buffer. 2) Deliver kinase into the substrate solution and gently mix. 3) Deliver compounds in 100% DMSO (1 μM) into the kinase reaction mixture by Acoustic technology (Echo550; nanoliter range), incubate for 10 min at RT. 4) Deliver ATP into the reaction mixture to initiate the reaction. 5) Incubate for 30 min at 30° C. 6) Quench the reaction with Stop Solution. 7) Add Detection Mixture, and incubate for overnight. […] The emission ratio is converted into μM PIP3 production based on PIP3 standard curves. The nonlinear regression to obtain the standard curve and IC50 values are performed using Graphpad Prism software. Assay Buffer: HEPES 50 mM (pH7.0), NaN3 0.02%, BSA 0.01%, Orthovanadate 0.1 mM, 1% DMSO. Detection buffer: HEPES 10 mM (pH7.0), BSA 0.02%, KF 0.16 M, EDTA 4 mM. Substrate: 10 μM PIP2 substrate (PI(4,5)P2).

T2 sequence (O00329 whole entry): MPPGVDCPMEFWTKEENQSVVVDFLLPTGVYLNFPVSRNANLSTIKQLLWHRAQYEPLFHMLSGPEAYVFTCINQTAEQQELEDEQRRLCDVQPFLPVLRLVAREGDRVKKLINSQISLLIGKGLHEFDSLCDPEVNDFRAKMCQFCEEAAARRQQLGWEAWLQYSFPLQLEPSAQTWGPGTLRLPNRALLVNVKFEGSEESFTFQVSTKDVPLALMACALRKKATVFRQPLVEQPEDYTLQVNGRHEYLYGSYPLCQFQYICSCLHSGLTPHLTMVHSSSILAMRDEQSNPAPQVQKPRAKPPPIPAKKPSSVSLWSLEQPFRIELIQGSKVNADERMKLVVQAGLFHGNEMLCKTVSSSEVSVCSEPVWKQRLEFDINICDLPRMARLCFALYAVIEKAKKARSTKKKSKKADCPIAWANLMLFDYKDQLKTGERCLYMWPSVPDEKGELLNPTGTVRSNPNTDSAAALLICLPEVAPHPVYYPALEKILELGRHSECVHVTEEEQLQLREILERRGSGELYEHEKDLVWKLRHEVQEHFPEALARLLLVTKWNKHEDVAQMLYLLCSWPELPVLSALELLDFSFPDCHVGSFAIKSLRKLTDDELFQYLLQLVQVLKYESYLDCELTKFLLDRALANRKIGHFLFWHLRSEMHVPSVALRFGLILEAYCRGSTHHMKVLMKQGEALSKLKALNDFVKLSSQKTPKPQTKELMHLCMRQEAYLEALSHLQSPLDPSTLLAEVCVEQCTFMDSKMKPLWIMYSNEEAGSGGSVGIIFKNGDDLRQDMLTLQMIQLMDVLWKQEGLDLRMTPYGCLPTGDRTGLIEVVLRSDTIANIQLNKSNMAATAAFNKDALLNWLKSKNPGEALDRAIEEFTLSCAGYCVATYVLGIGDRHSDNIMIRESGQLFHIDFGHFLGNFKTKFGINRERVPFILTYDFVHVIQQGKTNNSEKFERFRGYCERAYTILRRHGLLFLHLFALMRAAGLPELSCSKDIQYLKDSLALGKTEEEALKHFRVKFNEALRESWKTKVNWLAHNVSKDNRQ
T2 sequence (P27986 whole entry partner): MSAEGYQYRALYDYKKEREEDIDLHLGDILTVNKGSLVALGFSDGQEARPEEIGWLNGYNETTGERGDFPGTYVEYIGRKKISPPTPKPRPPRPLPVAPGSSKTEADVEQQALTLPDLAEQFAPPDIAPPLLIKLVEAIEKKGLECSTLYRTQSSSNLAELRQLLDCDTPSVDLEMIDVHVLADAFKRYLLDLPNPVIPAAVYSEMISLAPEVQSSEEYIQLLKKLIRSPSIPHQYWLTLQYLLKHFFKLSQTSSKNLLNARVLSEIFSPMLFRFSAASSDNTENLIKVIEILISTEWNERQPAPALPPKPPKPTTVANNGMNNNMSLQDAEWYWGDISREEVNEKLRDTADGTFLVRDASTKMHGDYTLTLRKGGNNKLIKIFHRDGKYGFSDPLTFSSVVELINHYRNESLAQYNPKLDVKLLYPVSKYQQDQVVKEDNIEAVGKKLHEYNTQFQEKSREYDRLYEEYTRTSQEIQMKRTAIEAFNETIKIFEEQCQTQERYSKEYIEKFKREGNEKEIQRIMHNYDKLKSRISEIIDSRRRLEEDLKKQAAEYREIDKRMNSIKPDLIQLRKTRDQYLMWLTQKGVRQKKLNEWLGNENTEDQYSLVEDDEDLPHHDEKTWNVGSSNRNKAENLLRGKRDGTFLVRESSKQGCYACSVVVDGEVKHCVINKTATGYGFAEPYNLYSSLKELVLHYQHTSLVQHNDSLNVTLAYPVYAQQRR
T1 sequence (Q06187 whole entry): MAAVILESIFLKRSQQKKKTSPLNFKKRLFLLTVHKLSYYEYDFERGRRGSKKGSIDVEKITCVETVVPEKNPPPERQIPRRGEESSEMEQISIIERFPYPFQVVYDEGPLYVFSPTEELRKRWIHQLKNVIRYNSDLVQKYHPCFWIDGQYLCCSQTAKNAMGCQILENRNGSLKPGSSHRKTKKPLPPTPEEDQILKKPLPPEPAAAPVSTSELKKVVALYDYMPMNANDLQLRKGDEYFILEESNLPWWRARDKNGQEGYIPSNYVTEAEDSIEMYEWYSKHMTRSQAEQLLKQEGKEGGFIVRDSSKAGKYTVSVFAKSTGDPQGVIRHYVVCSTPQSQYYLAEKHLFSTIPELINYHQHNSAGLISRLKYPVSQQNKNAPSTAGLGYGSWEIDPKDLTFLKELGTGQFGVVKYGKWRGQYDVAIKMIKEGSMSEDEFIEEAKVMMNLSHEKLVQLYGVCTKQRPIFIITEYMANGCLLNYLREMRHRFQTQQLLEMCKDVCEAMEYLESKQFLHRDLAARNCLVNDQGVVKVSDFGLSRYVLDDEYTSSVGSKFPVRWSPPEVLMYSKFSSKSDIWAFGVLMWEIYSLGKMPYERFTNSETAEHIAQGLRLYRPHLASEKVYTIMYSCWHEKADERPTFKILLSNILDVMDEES

| Compound | BTK @ 0.1 μM (% Inh) (BTK) | BTK @ 1 μM (% Inh) (BTK) | PI3Kδ @ 0.1 μM (% Inh) (PI3Kδ) | PI3Kδ @ 1 μM (% Inh) (PI3Kδ) | BTK @ 0.01 μM (% Inh) (BTK) | PI3Kδ @ 0.01 μM (% Inh) (PI3Kδ) | IC50 (BTK) | IC50 (PI3Kδ) |
| --- | --- | --- | --- | --- | --- | --- | --- | --- |
| Nc1ncnc2c1c(-c1cccc3[nH]ccc13)nn2C1Cc2ccccc2C1 [Compound No. 78, 1-(2,3-dihydro-1H-inden-2-yl)-3-(1H-indol-4-yl)-1H-pyrazolo[3,4-d]pyrimidin-4-amine] | 18.18 % Inh | 54.62 % Inh | 4.96 % Inh | 43.86 % Inh |  |  |  |  |
| CCOc1c(Cl)cc(-c2nn(C3Cc4ccccc4C3)c3ncnc(N)c23)cc1OC [Compound No. 77, 3-(3-chloro-4-ethoxy-5-methoxyphenyl)-1-(2,3-dihydro-1H-inden-2-yl)-1H-pyrazolo[3,4-d]pyrimidin-4-amine] | 24.85 % Inh | 76.64 % Inh | −1.66 % Inh | 16.5 % Inh |  |  |  |  |
| COc1ccc(-c2nn(C3CCc4ccccc43)c3ncnc(N)c23)cc1OC (stereo not shown) [compound 34, 1-(2,3-dihydro-1H-inden-1-yl)-3-(3,4-dimethoxyphenyl)-1H-pyrazolo[3,4-d]pyrimidin-4-amine] | 23.12 % Inh |  | 51.63 % Inh |  |  |  |  |  |
| Nc1ccc2c(c1)CC(n1nc(-c3cc(O)c(F)c(F)c3)c3c(N)ncnc31)C2 (stereo not shown) [compound 139, 5-[4-amino-1-(5-amino-2,3-dihydro-1H-inden-2-yl)-1H-pyrazolo[3,4-d]pyrimidin-3-yl]-2,3-difluorophenol] | 95.07 % Inh |  | 90.95 % Inh |  | 80.96 % Inh | 65.26 % Inh |  |  |
| Nc1ncnc2c1c(-c1ccc(O)nc1)nn2C1CCc2ccccc2C1 (stereo not shown) [compound 24, 5-(4-amino-1-(1,2,3,4-tetrahydronaphthalen-2-yl)-1H-pyrazolo[3,4-d]pyrimidin-3-yl)pyridin-2-ol] | 5.45 % Inh |  | 10.3 % Inh |  |  |  |  |  |
| Nc1ncnc2c1c(-c1cc(O)c(F)c(F)c1)nn2C1Cc2cc(F)ccc2C1=O (stereo not shown) [compound 127, 2-[4-amino-3-(3,4-difluoro-5-hydroxyphenyl)-1H-pyrazolo[3,4-d]pyrimidin-1-yl]-5-fluoro-2,3-dihydro-1H-inden-1-one] | 21.87 % Inh |  | 51.48 % Inh |  | 9.24 % Inh | 16.23 % Inh |  |  |
| Nc1ncnc2c1c(-c1ccc3cc[nH]c3c1)nn2C1CCc2ccccc21 (stereo not shown) [compound 37, 1-(2,3-dihydro-1H-inden-1-yl)-3-(1H-indol-6-yl)-1H-pyrazolo[3,4-d]pyrimidin-4-amine] | 29.59 % Inh |  | 15.52 % Inh |  |  |  |  |  |
| Nc1ncnc2c1c(-c1ccc(CO)cc1)nn2C1Cc2ccccc2C1 [Compound No. 55, {4-[4-amino-1-(2,3-dihydro-1H-inden-2-yl)-1H-pyrazolo[3,4-d]pyrimidin-3-yl]phenyl}methanol] | 14.00 % Inh | 50.29 % Inh | 15.60 % Inh | 48.96 % Inh |  |  | 2090 nM | 10400 nM |
| Nc1ncnc2c1c(-c1ccc(O)c(O)c1)nn2C1CCc2ccccc2C1 (stereo not shown) [compound 1, 4-(4-amino-1-tetralin-2-yl-pyrazolo[3,4-d]pyrimidin-3-yl)benzene-1,2-diol] | 12.61 % Inh |  | 48.6 % Inh |  |  |  |  |  |
| Nc1ncnc2c1c(-c1cc(O)c(F)c(F)c1)c(F)n2C1Cc2ccccc2C1 [compound 136, 5-[4-amino-7-(2,3-dihydro-1H-inden-2-yl)-6-fluoro-7H-pyrrolo[2,3-d]pyrimidin-5-yl]-2,3-difluorophenol] | 93.64 % Inh |  | 80.15 % Inh |  | 72.51 % Inh | 38.49 % Inh |  |  |
| COc1ccc(-c2nn(C3CCc4ccccc4C3)c3ncnc(N)c23)cc1F (racemic) [Compound No. 14, 3-(3-fluoro-4-methoxyphenyl)-1-(1,2,3,4-tetrahydronaphthalen-2-yl)-1H-pyrazolo[3,4-d]pyrimidin-4-amine] |  |  |  |  |  |  | 217 nM | 7.9 nM |
| Nc1ncnc2c1c(-c1ccc(O)c(F)c1)nn2C1CCc2ccccc2C1 (stereo not shown) [compound 22, 4-(4-amino-1-(1,2,3,4-tetrahydronaphthalen-2-yl)-1H-pyrazolo[3,4-d]pyrimidin-3-yl)-2-fluorophenol] |  |  |  |  |  |  | 293 nM | 39.6 nM |
| Nc1ncnc2c(C3Cc4ccccc4C3)cn(-c3cc(O)c(F)c(F)c3)c12 [compound 137, 5-[4-amino-7-(2,3-dihydro-1H-inden-2-yl)-5H-pyrrolo[3,2-d]pyrimidin-5-yl]-2,3-difluorophenol] | 96.31 % Inh |  | 45.54 % Inh |  | 87.65 % Inh | 6.28 % Inh |  |  |
| Nc1ncnc2c1c(-c1ccc3c(c1)OC(F)(F)O3)nn2C1Cc2ccccc2C1 [Compound No. 75, 3-(2,2-difluoro-2H-1,3-benzodioxol-5-yl)-1-(2,3-dihydro-1H-inden-2-yl)-1H-pyrazolo[3,4-d]pyrimidin-4-amine] | 10.92 % Inh | 29.0 % Inh | −0.46 % Inh | 15.57 % Inh |  |  |  |  |
| Nc1ncnc2c1c(-c1ccc3cn[nH]c3c1)nn2C1CCc2ccccc2C1 (racemic) [compound 9, 3-(1H-indazol-6-yl)-1-(1,2,3,4-tetrahydronaphthalen-2-yl)-1H-pyrazolo[3,4-d]pyrimidin-4-amine] | 15.85 % Inh |  | 44.86 % Inh |  |  |  |  |  |
| N#Cc1ccc(-c2nn(C3Cc4ccccc4C3)c3ncnc(N)c23)cc1O [Compound No. 94, 4-[4-amino-1-(2,3-dihydro-1H-inden-2-yl)-1H-pyrazolo[3,4-d]pyrimidin-3-yl]-2-hydroxybenzonitrile] | 22.48 % Inh |  | 71.5 % Inh |  | 8.16 % Inh | 29.77 % Inh |  |  |
| Nc1ncnc2c1c(-c1ccc(Cl)nc1)nn2C1CCc2ccccc2C1 (stereo not shown) [compound 25, 3-(6-chloro-3-pyridyl)-1-tetralin-2-yl-pyrazolo[3,4-d]pyrimidin-4-amine] | 20.21 % Inh |  | 27.39 % Inh |  |  |  |  |  |
| COc1ccc(-c2nn(C3Cc4ccccc4C3)c3ncnc(N)c23)cc1OC [Compound No. 35, 1-(2,3-dihydro-1H-inden-2-yl)-3-(3,4-dimethoxyphenyl)-1H-pyrazolo[3,4-d]pyrimidin-4-amine] | 29.9 % Inh |  |  |  |  |  |  |  |
